One compound from patent US7083933B1, “Methods for identification of modulators of OSGPR116 activity” (Prosidion Limited, priority 2003, dated 2006) can be followed below.

Assay [1] deals with T1, mouse homolog of OSGPR116 (Mus musculus, UniProt Q7TQP3).
T1 construct: expressed in transfected cells; host or cells: engineered yeast (GPA1 and Ste3 deleted, G-alpha chimera, Fus1p-LacZ reporters)
T1 sequence (Q7TQP3 1-335): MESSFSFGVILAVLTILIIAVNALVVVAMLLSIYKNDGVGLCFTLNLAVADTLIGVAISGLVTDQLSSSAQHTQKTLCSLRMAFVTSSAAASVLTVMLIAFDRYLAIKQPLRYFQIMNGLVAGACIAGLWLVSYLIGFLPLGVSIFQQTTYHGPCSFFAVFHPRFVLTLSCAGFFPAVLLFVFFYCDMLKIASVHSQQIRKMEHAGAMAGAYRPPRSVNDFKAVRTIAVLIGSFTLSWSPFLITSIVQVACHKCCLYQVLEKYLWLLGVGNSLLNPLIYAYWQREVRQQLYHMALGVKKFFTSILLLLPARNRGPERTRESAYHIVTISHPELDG
Kind of assay: Yeast cell-based Fus1p-LacZ reporter assay, mouse OSGPR116. The settings on record: mouse isoform, FIG. 9b; Galpha-q5 yeast, 4h incubation. An excerpt:
(§1) The yeast cell-based reporter assays have previously been described in the literature (e.g. see Miret J. J., et. al. (2002) J. Biol. Chem. 277:6881–6887; Campbell R. M., et. al. (1999) Bioorg Med. Chem. Lett. 9:2413–2418; King K., et. al. (1990) Science. 250:121–123); WO 99/14344; WO 00/12704; and U.S. Pat. No. 6,100,042). Briefly, yeast cells have been engineered such that the endogenous yeast G-alpha (GPA1) has been deleted and replaced with G-protein chimeras constructed using multiple techniques. Additionally the endogenous yeast alpha-cell GPCR, Ste3 has been deleted to allow for a […] expression of a mammalian GPCR of choice. In the yeast, elements of the pheromone signaling transduction pathway, which are conserved in eukaryotic cells (for example, the mitogen-activated protein kinase pathway), drive the expression of Fus1. By placing β-galactosidase (LacZ) under the control of the Fus1 promoter (Fus1p), a system has been developed whereby receptor activation leads to an enzymatic read-out. Different yeast strains (e.g. FIG. 10) denote the presence of different G-alpha chimeras (see “yeast reporter assays” in Results section below for definitions).
(§2) Yeast cells are transformed by an adaptation of the Lithium acetate method described by Agatep et.al. (Agatep, R., et. al. (1998) Transformation of Saccharomyces cerevisiae by the lithium acetate/single-stranded carrier DNA/polyethylene glycol (LiAc/ss-DNA/PEG) protocol. Technical Tips Online, Trends Journals, Elsevier). Briefly, yeast cells are grown overnight on yeast tryptone plates (YT). Carrier single-stranded DNA (10 μg), 2 μg of each of two Fus1p-LacZ reporter plasmids (one with URA selection marker and one with TRP), 2 μg of OSGPR116 in yeast expression vector (2μ origin of replication) and a lithium acetate/polyethylene glycol/TE buffer is pipetted into an Epindorf tube. The yeast expression plasmid containing the receptor/no receptor control has a LEU marker. Yeast cells are inoculated into this mixture and the reaction proceeds at 30° C. for 60 minutes. The yeast cells are then heat-shocked at 42° C. for 15 minutes. The cells are then washed and spread on selection plates. The selection plates are synthetic defined yeast media minus LEU, URA and TRP (SD-LUT). After incubating at 30° C. for 2–3 days, colonies that grow on the selection plates are then tested in the LacZ assay.
(§3) In order to perform fluorometric enzyme assays for β-galactosidase, yeast cells were grown overnight in liquid SD-LUT media to an unsaturated concentration (i.e. the cells are still dividing and have not yet reached stationary phase). They are diluted in fresh media to an optimal assay concentration and 90 μL of yeast cells were added to 96-well black polystyrene plates (Costar). Compounds, dissolved in ethanol and diluted in a 1% BSA solution to 10× concentration, were added to the plates and the yeast are placed at 30° C. for 4h. After 4h, the substrate for the β-galactosidase is added to each well. The substrate may yield a fluorescent or calorimetric read-out upon the activity of the β-galactosidase. In these experiments, Fluorescein di (β-D-galactopyranoside) was used (FDG), a substrate for the enzyme that releases fluorescein, allowing a fluorometric read-out. 20 μL of 500 uM FDG was used. After incubation of the cells with the substrate for 30–60 mins, 20 μL of 1M sodium carbonate is added to terminate the reaction and enhance the fluorescent signal. The plates were then read in a fluorometer at 485/535 nm. As an alternate read-out system, the yeast are also engineered with a Fus1p-HIS gene which means that activation of the receptor can also be measured through the growth of the yeast in a […] deficient media.
(A reporter such as luciferase makes a cellular process visible.)

In assay [2] the test system is vector transformed yeast cells. Put plainly: Yeast reporter assay, vector transformed (no receptor) control yeast. Type of assay: cell-based.
Excerpt: as §1, §2, §3

In assay [3] the target is T2, OSGPR116 (Homo sapiens, UniProt Q8TDV5).
T2 sequence (Q8TDV5 1-335): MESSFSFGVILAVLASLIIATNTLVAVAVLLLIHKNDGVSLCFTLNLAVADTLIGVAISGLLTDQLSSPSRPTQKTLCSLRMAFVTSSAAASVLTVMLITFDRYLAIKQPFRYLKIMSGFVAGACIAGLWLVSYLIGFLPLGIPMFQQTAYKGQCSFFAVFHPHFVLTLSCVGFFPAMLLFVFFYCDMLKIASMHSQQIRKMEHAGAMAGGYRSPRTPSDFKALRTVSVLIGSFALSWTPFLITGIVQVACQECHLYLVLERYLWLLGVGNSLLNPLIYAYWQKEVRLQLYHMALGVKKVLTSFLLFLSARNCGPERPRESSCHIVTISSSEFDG
Put plainly: Adenylate cyclase (alpha-screen cAMP) assay in ASPC-1 cells endogenously expressing OSGPR116. Type of assay: cell-based. Conditions: FIG. 11. Here is the method:
The adenylate cyclase assay was performed with an alpha-screen cAMP assay kit […]. The manufacturers protocol was followed. Briefly, ASPC-1 cells, known to endogenously express moderate levels of OSGPR116 were […] from the culture flask using a lysis buffer (0.1% BSA in PBS containing 20 μM rolipram and 0.54% TWEEN20), washed with PBS and diluted in assay buffer (0.1% BSA in PBS containing 20 μM rolipram) to a concentration of 600,000 cells/mL. White polystyrene 96-well plates were used for the assay. […] The plate was incubated at room temperature 30 min. For the standard cAMP curve used to quantify the data, 5 μl water+5 μl 4×cAMP in assay buffer+5 μl acceptor beads+5 μl cells were added to the plate. To terminate the assay, 10 ul of the donor beads solution was added (30 nM biotin-cAMP/60 μg streptavidin-donor beads in 1 mL lysis buffer). The plates were incubated overnight, protected from light. A Fusion-αHT counter was used to read the plates according to the kit's instructions.
For orientation: In Alpha technology, singlet oxygen from a donor bead excites a nearby acceptor bead.

The next assay has as its system Wistar rats. Put plainly: In vivo acute feeding experiment in fasted rats. The arrangement: species or system rat. Conditions: overnight fasted Wistar rats, 1 and 2h post-treatment, FIG. 13. Here is the method: For the acute feeding experiment, the experimental conditions used as closely as possible replicated those of de Fonseca, F. R. et.al. (2001) Nature, 414:209–212. […] Oleoylethanolamide (3 and 10 mg/kg i.p.) or vehicle was administered 15 minutes prior to the availability of food. Oleoylethanolamide was dissolved in dimethylsulfoxide (DMSO) and administered in a 70% DMSO in sterile water solution. Following presentation of food, food intake (grams) was measured at 1, 2, 3 and 4h intervals and the results compared to a normal feeding and vehicle treated control group.

The target of assay [4] is T2, OSGPR116. Put plainly: Yeast cell-based Fus1p-LacZ reporter assay, human OSGPR116. Set-up: expressed in transfected cells; host or cells: engineered yeast (GPA1 and Ste3 deleted, G-alpha chimera, Fus1p-LacZ reporters). The settings on record: for rank of efficacy and potency among compounds tested: yeast-based reporter assay.
Excerpt: as §1, §2, §3

For assay [5], the target named is T2, OSGPR116. Kind of assay: Yeast reporter assay in strains with different G-alpha chimeras. In kind it is cell-based. The arrangement: expressed in transfected cells; host or cells: yeast strains 13397, 13393, 15070, 18043, 20202, 10151 with different G-alpha chimeras. Conditions: G-alpha-q (13397), G-alpha-i (13393, 15070, 18043), G-alpha-s (20202, 10151) strains; FIG. 10. The source says: The yeast cell-based reporter assays have previously been described in the literature (e.g. see Miret J. J., et. al. (2002) J. Biol. Chem. 277:6881–6887; Campbell R. M., et. al. (1999) Bioorg Med. Chem. Lett. 9:2413–2418; King K., et. al. (1990) Science. 250:121–123); WO 99/14344; WO 00/12704; and U.S. Pat. No. 6,100,042). Briefly, yeast cells have been engineered such that the endogenous yeast G-alpha (GPA1) has been deleted and replaced with G-protein chimeras constructed using multiple techniques. Additionally the endogenous yeast alpha-cell GPCR, Ste3 has been deleted to allow for a […] expression of a mammalian GPCR of choice. […] By placing β-galactosidase (LacZ) under the control of the Fus1 promoter (Fus1p), a system has been developed whereby receptor activation leads to an enzymatic read-out. […]
In order to perform fluorometric enzyme assays for β-galactosidase, yeast cells were grown overnight in liquid SD-LUT media to an unsaturated concentration (i.e. the cells are still dividing and have not yet reached stationary phase). […] The substrate may yield a fluorescent or calorimetric read-out upon the activity of the β-galactosidase. In these experiments, Fluorescein di (β-D-galactopyranoside) was used (FDG), a substrate for the enzyme that releases fluorescein, allowing a fluorometric read-out. […] The plates were then read in a fluorometer at 485/535 nm. […]

With `CCCCCCCC/C=C\CCCCCCCC(=O)NCCO` [oleoyl ethanolamide], the “effect on fluorescence (β-galactosidase activity) in yeast transformed with OSGPR116 receptor” value in assay [1] is recorded as “increase in fluorescence”; at OSGPR116 [4] (human isoform, FIG. 9a, Galpha-q5 yeast, 4h incubation), “increase in fluorescence”. The “response of vector controls in the same yeast strains” value in assay [2] (G-alpha chimera strains, FIG. 10) was “did not respond”. In addition, the “increase in fluorescence in vector transformed cells” value in assay [2] (yeast without OSGPR116 expression, FIGS. 9a, 9b) is listed as “not”. The “forskolin-stimulated cAMP accumulation” value at OSGPR116 [3] (10 μM compound with forskolin (10 μM)) is reported as “inhibition”. The cAMP production entry on OSGPR116 [3] (10 μM, without forskolin) is listed as “did not cause an increase”. Further, the “feeding (food intake)” value in the assay with Wistar rats (3 mg/kg i.p.) and in the assay with Wistar rats (10 mg/kg i.p.) was “inhibition of feeding” each time. Moreover, the “rank of efficacy and potency among compounds tested” value on OSGPR116 [4] (listed as Oleoyl ethanolamide) was “most efficacious and potent”; on OSGPR116 [4] (listed as oleoylethanolamide) it was “optimal endogenously produced agonist”. The “response in OSGPR116-transformed yeast with G-alpha chimeras” value at OSGPR116 [5] is given as “produce a response”.
